Measured values: patent US11883407B2, “Medicament for the treatment of chronic cough” (Shionogi & Co., Ltd., priority 2018, dated 2024)

Tests used:
clinical = details: human, plasma, oral
[1] = Phase I single dose and food effect study (safety, tolerability)
[2] = tested on: patients with refractory/unexplained chronic cough; experiment: Phase II double-blind cross-over comparative study: cough frequency and Leicester Cough Questionnaire; format: in vivo, human
Experimental: A Phase II double-blind cross-over comparative study was conducted in patients with refractory/unexplained chronic cough.
In patients with refractory/unexplained chronic cough, the placebo-adjusted change from baseline in the number of coughs per hour during daytime (7 am to 7:59 pm, which means right before 8:00 pm) after 2 weeks of administration of the compound represented by Formula (I), and its significance were evaluated. Similarly, the placebo-adjusted change from baseline in the number of coughs per hour in 24 hours after administration of the compound represented by Formula (I) and its significance were also evaluated.
The placebo-adjusted change is defined by the following equation.
(§1) The trial was conducted as a placebo-controlled, multicenter, randomized, double-blind, cross-over comparative study. The study consists of a screening phase (1 to 4 weeks), a first treatment phase (15 days), a drug holiday (2 to 3 weeks), a second treatment phase (15 days) and a follow-up phase (1 week).
(§2) Subjects (20 females, 11 males, mean age of 50.0 years) were randomly assigned to either the group receiving the compound according to Formula (I) first or the group receiving the placebo first. The subjects in the group receiving the compound according to Formula (I) first received orally tablets containing 150 mg of the compound according to Formula (I) (50 mg, 3 tablets), and the subjects in the group receiving the placebo first received orally placebo tablets (3 tablets), from the day following the first treatment phase once daily in the morning for 2 weeks.
(For the number of coughs per hour during daytime in each of the first and second treatment phases, the mixed effect model was applied, with the common logarithms of the ratio to the baseline after 2 weeks of administration as the responses, the investigational drugs, the administration groups (group receiving the compound represented by Formula (I) first and group receiving the placebo first), and the phases as the fixed effects, the individuals as the random effects, and the common logarithms of the number of coughs per hour at baseline as the covariates.) (Results) A comparison (full analysis population) of the change in the number of coughs per hour in 24 hours is shown in Table 4.
(For the number of coughs per hour in 24 hours in each of the first and second treatment phases, the mixed effect model was applied, with the common logarithms of the ratio to the baseline after 2 weeks of administration as the responses, the investigational drugs, administration groups (group receiving the compound represented by Formula (I) first and group receiving the placebo first), and phases as the fixed effects, the individuals as the random effects, and the common logarithms of the number of coughs per hour at baseline as the covariates.) (Results) A comparison (full analysis population) of the total change in the sum of the three domains of the Leicester Cough Questionnaire [Japanese version] is shown in Table 5.
(For the change from baseline in the total score of the three domains of the Leicester Cough Questionnaire [Japanese version] at the end or discontinuation of each of the first and second treatment phases, the mixed effect model was applied, with the changes from the baseline as the responses, the investigational drugs, phases, and administration groups (group receiving the compound represented by Formula (I) first and group receiving the placebo first) as the fixed effects, the individuals as the random effects, and the total scores of the three domains of the Leicester Cough Questionnaire [Japanese version] at baseline as the covariates.)

[3] = Phase I repeat dose study (safety, tolerability); format: in vivo, human
[4] = Phase II clinical trial: treatment-related and taste-related adverse events; format: in vivo, human
Experimental: as §1, §2
Next, the incidence of taste-related adverse events and side effects observed in the Phase II clinical trial is shown in Table 6.
Here, the incidence of taste-related adverse events in Test Example 6 was examined. In this study, the compound represented by Formula (I) and the corresponding placebo were used as the investigational drugs. As the study design, a cross-over design consisting of two treatment phases was used. Each subject was assigned to either the treatment group taking 150 mg per day of the compound represented by Formula (I) during the first treatment phase and the placebo during the second treatment phase, or the treatment group taking the placebo during the first treatment phase and 150 mg per day of the compound represented by Formula (I) during the second treatment phase. The safety analysis population in this study was 31 subjects, all of whom were taking the compound represented by Formula (I) and the placebo. Among them, dysgeusia occurred in 1 subject (1/31, 3.2%) and hypogeusia occurred in another subject (1/31, 3.2%) when taking the compound represented by Formula (I). […] Therefore, taste-related adverse events occurred in 2 subjects (2/31, 6.5%). No taste-related adverse events were observed when taking the placebo.
Based on the above results, for the proportion of subjects who experienced any of the taste-related adverse events, the study design of each study was taken into account, and as the difference between each investigational drug and placebo, the mean of differences of incidence in the same subject between the treatments and the two-sided 95% confidence interval thereof were calculated for Test Example 6, and the difference of incidence between the Gefapixant 50 mg treatment group and the placebo treatment group and the two-sided 95% confidence interval thereof were calculated for the study MK-7264-012.

[5] = 150 mg once daily, 2 weeks, from baseline, full analysis population
[6] = 150 mg once daily, 2 weeks, full analysis population

C[C@@H](Cn1c(=O)[nH]/c(=N\c2ccc(Oc3ccccn3)cc2)n(Cc2ccc(Cl)cc2)c1=O)C(=O)O [compound represented by Formula (I), (2S)-3-(3-[(4-Chlorophenyl)methyl]-2,6-dioxo-4-{[4-(pyridin-2-yloxy)phenyl]amino}-3,6-dihydro-1,3,5-triazin-1(2H)-yl)-2-methyl-propanoic acid]
concentration at 24 h (clinical; 3 mg): 15.2 ng/mL | concentration at 24 h (clinical; 10 mg): 50.7 ng/mL | concentration at 24 h (clinical; 30 mg): 134 ng/mL | concentration at 24 h (clinical; 100 mg): 424 ng/mL | concentration at 24 h (clinical; 300 mg): 1840 ng/mL | concentration at 24 h (clinical; 450 mg): 2680 ng/mL | deaths, serious adverse events, adverse events leading to discontinuation of administration ([1]; Part A and Part B, healthy adult males): no deaths, serious adverse events, or adverse events leading to discontinuation of administration | taste-related adverse events or side effects ([1]; all Phase I studies conducted (single dose/food effect and repeat dose)): No taste-related adverse events or side effects were observed | dysgeusia or any taste-related disorder as adverse event ([1]; single dose 3, 10, 30, 100, 300 and 450 mg groups): no dysgeusia or any taste-related disorder was observed | Drug differences, total score of the three domains of the Leicester Cough Questionnaire ([2]; 150 mg once daily vs placebo): 1.40 | difference between investigational drug groups in total score of the three domains of the Leicester Cough Questionnaire ([2]; 150 mg once daily vs placebo, significant difference): 1.40 points | placebo-adjusted rate of decrease in the number of coughs per hour during daytime ([2]; 150 mg once daily, 2 weeks): 31.6% | Estimated amount of change, total score of the three domains of the Leicester Cough Questionnaire ([2]; 150 mg once daily, 2 weeks, from baseline): 2.46 | Estimated rate of change in number of coughs per hour during daytime [2, 5]: −54.1% | Estimated rate of change in number of coughs per hour in 24 hours [2, 5]: −52.6% | Rate of change adjusted by placebo, number of coughs per hour during daytime [2, 6]: −31.6% | Rate of change adjusted by placebo, number of coughs per hour in 24 hours [2, 6]: −30.9% | placebo-adjusted rate of decrease in the number of coughs per hour in 24 hours ([2]; 150 mg once daily, 2 weeks, significant difference): 30.9% | dysgeusia or any taste-related disorder ([3]; 150 and 300 mg once daily for 2 weeks): no dysgeusia or any taste-related disorder was observed | deaths, serious adverse events, adverse events leading to discontinuation of administration ([3]; any administration group, healthy adult males): no deaths, serious adverse events or adverse events leading to discontinuation of administration | Any Treatment-related AEs, number of events ([4]; 150 mg once daily, N = 31): (4) | Drug-induced liver injury, number of events ([4]; 150 mg once daily, N = 31): (1) | Drug-induced liver injury, patients ([4]; 150 mg once daily, N = 31): 1 (3.2) n (%) | Dysgeusia, number of events ([4]; 150 mg once daily, N = 31): (1) | Dysgeusia, patients ([4]; 150 mg once daily, N = 31): 1 (3.2) n (%) | Gastrointestinal disorders, number of events ([4]; 150 mg once daily, N = 31): (1) | Gastrointestinal disorders, patients ([4]; 150 mg once daily, N = 31): 1 (3.2) n (%) | Hepatobiliary disorders, number of events ([4]; 150 mg once daily, N = 31): (1) | Hepatobiliary disorders, patients ([4]; 150 mg once daily, N = 31): 1 (3.2) n (%) | Hypoaesthesia oral, number of events ([4]; 150 mg once daily, N = 31): (1) | Hypoaesthesia oral, patients ([4]; 150 mg once daily, N = 31): 1 (3.2) n (%) | Hypogeusia, number of events ([4]; 150 mg once daily, N = 31): (1) | Nervous system disorders, number of events ([4]; 150 mg once daily, N = 31): (2) | Nervous system disorders, patients ([4]; 150 mg once daily, N = 31): 2 (6.5) n (%) | Patients with any Treatment-related AEs ([4]; 150 mg once daily, N = 31): 4 (12.9) n (%) | hypogeusia, patients ([4]; 150 mg once daily, N = 31): 1 (3.2) n (%) | severity of taste-related adverse events ([4]; 150 mg per day): both were mild | ageusia ([4]; 150 mg per day, 31 subjects): No ageusia was observed | dysgeusia (taste change), patients ([4]; 150 mg per day, 31 subjects): 3.2% | hypogeusia, patients ([4]; 150 mg per day, 31 subjects): 3.2% | number of subjects with taste-related adverse events ([4]; 150 mg per day, 31 subjects): 2 subjects | taste-related adverse events, patients ([4]; 150 mg per day, 31 subjects): 6.5% | Difference of incidence of any of the taste-related adverse events (drug − placebo) ([4]; 150 mg, mean difference between treatments in the same subject): 6.5%
